Laboratory results taken from patent US11248016B2, “Glycolipids and pharmaceutical compositions thereof for use in therapy” (THE UNIVERSITY OF NOTTINGHAM, priority 2014, dated 2022).

Legend:
[1] = tested on: SKOV3 ovarian cancer cells; assay: Cell proliferation, SKOV3; assay type: cell-based; conditions: 96 hours, Cisplatin alone; FIG. 4f
Method: Growth of SKOV3 cell lines were slowed by the treatment with a compound of Formula II at higher doses. Experiment represents 6 biological repetitions, Error=S.E.M.
Cisplatin™ resistant SKOV-3 ovarian cancer cells were sensitised to treatment with a compound of Formula II in combination with 2.5 μM Cisplatin™ (p=0.003) (right hand bar in the figure), no effect is observed from treatment with equivalent levels of a compound of Formula II alone (left hand bar in the figure) or Cisplatin™ alone.
(§1) Prior to treatment cells were cultured to an appropriate confluency in 96 well tissue culture plates (Fisher). Cells remained either supplemented with fresh media or treated with fresh media containing active or an equivalent volume of DMSO (vehicle control). Where used, Cisplatin™ was diluted to a stock concentration in Dimethylformamide (DMF), then handled as per the manufacturer's instructions. To determine relative cell viability, reagents WST-1 (Roche) or MTT (Sigma) were used as per the manufacturer's instructions and absorbance at 450 nm measured using a Victor plate reader (Perkin Elmer).

[2] = tested on: primary canine histocytic sarcoma tumour cells; assay: Primary canine tumour cell experiments; assay type: cell-based, dog; conditions: single dose Cisplatin (10 μM), 6 days
Method: Cells were cultured for 6 days with a single dose treatment of Cisplatin™ (10 μM) or a combination of Cisplatin™ plus a compound of Formula II (active). Images were taken after 6 days treatment and are representative of three independently treated wells. Each image (40× magnification) represents the majority of the well area and is of an equivalent area in each photograph.
Known inhibitors of protein synthesis such as hippuristanol have proven potent anti-cancer properties when used in combination with chemotherapeutic agents such as Cisplatin™ or Doxorubicin™. However hippuristanol is naturally found in coral to is scarce and expensive to obtain, furthermore it is very difficult and expensive to synthesise. […] In particular this combination has a potent effect at slowing proliferation or killing cancer cells. Slow growing and difficult to treat tumour cell types such as A549 lung cancer cells, SH-SY5Y neuroblastoma or SKOV-3 cancer cells are all sensitised by exposure to Formula II to very low doses of Cisplatin™ (FIGS. 4d, 4e, 4f and 7)—a complete kill can be achieved in both A549 and SH-SY5Y cells after a single dose treatment with g quantities of a compound of Formula II in combination with 1 μM or 2.5 μM treatments of Cisplatin™. […]

NLGN1 5′UTR = assay: NLGN translation reporter assay, neuroligin 1; assay type: cell-based, human; conditions: FIG. 5: 1 μM Hippuristanol, 1.3 μM compound; FIG. 10: compound 46
Method: (§2) The mechanism of action and level of activity of Formula II are consistent with and comparative to a proven translational inhibitor extracted from a rare coral species (Hippuristanol—a proven inhibitor of eIf4A). In this experiment 1 μM of Hippuristanol and 1.3 μM of Formula I was used
(§3) FIG. 10—Compound 46, NLGN Translation reporter assay.
Direct evidence is provided that inhibiting eIF4A represents a new route to treating ASD based on the data presented by Gkogkas et al. Nature 2013, 493:371-7.
Treatment with the compound of Formula II (and compound 46) (FIG. 5 and FIG. 10) selectively decrease the firefly luciferase signal from a reporter construct containing the NLGN1 5′UTR upstream of a firefly luciferase gene. The translation of luciferase reporters downstream of the NLGN1 5′UTR has been proven to be dependent on the activity of the translation initiation complex eIF4F (Gkogkas et al Nature 2013, 493:371-7)—a complex containing the helicase eIF4A. Equivalent treatment had little effect on the signal generated from either a co-transfected renilla luciferase reporter control or cells transfected with an equivalent construct containing the NLGN2 5′UTR upstream of a firefly luciferase gene (FIG. 5 and FIG. 10).
Experiments conducted using Firefly luciferase reporter plasmids containing the 5′ untranslated regions (UTRs) of the genes amyloid precursor protein (APP), thioredoxin (TXN) were conducted with reagents and materials described by Bottley et al, 2010. Experiments conducted using Firefly luciferase reporter plasmids containing the 5′ UTRs of the genes EGFR, BACE1 and Actin were conducted with reagents and materials described by Webb, 2012 (http://etheses.nottingham.ac.uk/2724/). […]
(§4) Cells were transfected using FuGene 6 (Roche) following the manufacturer's instructions. The activities of firefly and renilla luciferase in lysates prepared from transfected cells were measured using a commercially available Luciferase reporter assay system (Promega) and light emission was measured over a 10 sec interval using a TECAN luminometer. […]

NLGN2 5′UTR = assay: NLGN translation reporter assay, neuroligin 2; assay type: cell-based, human; conditions: equivalent treatment; FIG. 5 and FIG. 10
Method: as §2, §3
Treatment with the compound of Formula II (and compound 46) (FIG. 5 and FIG. 10) selectively decrease the firefly luciferase signal from a reporter construct containing the NLGN1 5′UTR upstream of a firefly luciferase gene. The translation of luciferase reporters downstream of the NLGN1 5′UTR has been proven to be dependent on the activity of the translation initiation complex eIF4F (Gkogkas et al Nature 2013, 493:371-7)—a complex containing the helicase eIF4A. […]
as §4

[3] = tested on: A549 lung carcinoma cells; assay: Cell proliferation, A549 (WST-1 / MTT); assay type: cell-based; conditions: for sensitisation of A549 cells to low dose cisplatin: range of doses with range of doses of Cisplatin, FIG. 14; for sensitisation of A549 cells to low dose cisplatin / growth of A549 cells: 96 hrs; for growth of A549 cells: range of doses, dose dependant manner, FIG. 13
Method: Cisplatin™ resistant A549 lung cancer cells were sensitised to treatment with a compound of Formula II in combination with 1 μM Cisplatin™—a complete kill is achieved at higher doses of a compound of Formula II.
Cells were treated with a range of doses of active for either 48 or 96 hrs. Each data point is representaive of at least 4 biological repetitions.
Cells were treated with either 2 μM Cisplatin™ alone, c. 1 μg active alone or c. 1 μg active in combination with 2 μM Cisplatin™. A WST-1 cell proliferation assay was performed 96 hrs after treatment. Experiment represents 4 independent biological repetitions.
A WST-1 cell proliferation assay was performed 72 hrs after treatment. Experiment represents 4 independent biological repetitions.
Cells were treated with either 2 μM or 10 μM Cisplatin™ alone, or 10 μg synthetic molecule Formula II in combination with 2 μM Cisplatin™. A WST-1 cell proliferation assay was performed 72 hrs after treatment. Experiment represents 4 independent biological repetitions. A 5-fold increase in the efficacy of Cisplatin™ is observed when treated in combination with the synthetic Formula II.
Cells were treated with either 2 μM, 5 μM or 10 μM Cisplatin™ alone, 50 μg synthetic acetyl derivative molecule or 30 μg in combination with 2 μM Cisplatin™. A WST-1 cell proliferation assay was performed 72 hrs after treatment. Experiment represents four independent biological repetitions. No effect was detected after treatment with 50 μg synthetic acetyl derivative, however an 8-fold increase in the efficacy of Cisplatin™ is observed when treated in combination with 30 μg synthetic acetyl derivative and […] Cisplatin™.
FIG. 11—Natural molecule plus cisplatin compared to Hippuristanol plus cisplatin. […] The ratio between anti-proliferative activity to chemo sensitizing activity is also equivalent.
FIG. 13—Dose curves of compounds 46, 99 and 123. […] Cells were treated with a range of doses of active for 96 hrs. Each data point is representative of at least 4 biological repetitions and error=s.e.m).
FIG. 14—Cisplatin™ combination experiments—Compounds 46, 99 and 123. […] Cells were treated with a range of doses of active in combination with a range of doses of Cisplatin™ for 96 hrs. Each data point is representative of at least 4 biological repetitions and error=s.e.m).
as §1

[4] = tested on: firefly luciferase translation reporter; assay: Firefly luciferase translation reporter assay; assay type: cell-based, human; conditions: Hippuristanol (1 μM) alone, 4 hrs; FIG. 3c
Description: Graphs represent 4 biological repetitions per treatment—2 independent treatments of a compound of Formula II.
Graphs represent 4 biological repetitions per treatment. […] No difference is observed between Hippuristanol and Hippuristanol plus a compound of Formula II.
The degree of translation inhibition is shown to be equivalent to that of a known inhibitor of translation, hippuristanol (FIGS. 3b and 5). Comparative structured 5′UTR firefly luciferase reporter experiments conducted using either hippuristanol or a compound of Formula II show the inhibition of reporter levels is equivalent.
Cells were transfected using FuGene 6 (Roche) following the manufacturer's instructions. The activities of firefly and renilla luciferase in lysates prepared from transfected cells were measured using a commercially available Luciferase reporter assay system (Promega) and light emission was measured over a 10 sec interval using a TECAN luminometer. For each experiment described, data was obtained from a minimum of at least 3 biological repetitions per treatment.

three Gag isoforms = conditions: increasing amounts, dose-response; cited from earlier work
HCMV = conditions: cited from earlier work

Structure (SMILES): N.N.[Cl][Pt][Cl] [Cisplatin, cis-diamminedichloroplatinum(II), reference compound]
- effect on SKOV-3 cells, Cisplatin alone [1]: no effect
- canine tumour cells after Cisplatin only [2]: many cancer cells remain

Structure (SMILES): CC/C=C\C/C=C\C/C=C\CCCCCCCC(=O)OCC(COC(=O)CCCCCCC/C=C\C/C=C\C/C=C\CC)CO[C@@H]1O[C@H](CO)[C@H](O)[C@H](O)[C@H]1O [Compound 46]
- translation of NLGN1 5′UTR firefly luciferase reporter relative to neuroligin 2 (NLGN1 5′UTR): selectively inhibits the translation
- signal of NLGN2 5′UTR firefly luciferase reporter (NLGN2 5′UTR): little effect
- sensitisation of A549 cells to low dose cisplatin [3]: sensitizes
- growth of A549 cells [3]: inhibits the growth

Structure (SMILES): CC/C=C\C/C=C\C/C=C\CCCCCCCC(=O)OCC(COC(=O)CCCCCCC/C=C\C/C=C\C/C=C\CC)CO[C@@H]1O[C@H](CO)[C@@H](O)[C@H](O)[C@H]1O [Compound 99]
- sensitisation of A549 cells to low dose cisplatin [3]: sensitizes
- growth of A549 cells [3]: inhibits the growth

Structure (SMILES): CC/C=C\C/C=C\C/C=C\CCCCCCCC(=O)OC[C@H](CO[C@H]1O[C@H](CO)[C@@H](O)[C@H](O)[C@H]1O)OC(=O)CCCCCCC/C=C\C/C=C\C/C=C\CC [Compound 123]
- sensitisation of A549 cells to low dose cisplatin [3]: sensitizes
- growth of A549 cells [3]: inhibits the growth

Structure (SMILES): C[C@H]1C[C@@]2(O[C@H]3C[C@H]4[C@@H]5CC[C@H]6C[C@H](O)CC[C@]6(C)[C@H]5[C@@H](O)C[C@]4(C)[C@H]3[C@@]2(C)O)OC1(C)C [Hippuristanol, reference compound]
- inhibition of translation reporter [4]: significant inhibition
- translation of NLGN1 5′UTR firefly luciferase reporter relative to neuroligin 2 (NLGN1 5′UTR): selective inhibition
- anti-proliferative activity on A549 cells ([3]; alone, FIG. 11): anti-proliferative
- translation of the three Gag isoforms (three Gag isoforms): inhibits the translation of the three Gag isoforms

Structure (SMILES): CC(/C=C/C(C)=C/[C@@H]1Cc2nc(cs2)[C@@H](C)C[C@@H](N)CC(=O)O[C@@H](C)C/C(C)=C/C=C\C(=O)O1)=C\CN(C)C [Pateamine A]
- replication of HCMV (HCMV): inhibits the replication of HCMV

Structure (SMILES): CC/C=C\C/C=C\C/C=C\CCCCCCCC(=O)OC[C@H](COC1OC(COC(C)=O)C(OC(C)=O)C(OC(C)=O)C1OC(C)=O)OC(=O)CCCCCCC/C=C\C/C=C\C/C=C\CC (some centres unmarked) [acetyl derivative of Formula II]
- increase in the efficacy of Cisplatin ([3]; 30 μg plus 2 μM Cisplatin, WST-1, 72 hrs, FIG. 9c): 8 fold
- effect on A549 cells, compound alone ([3]; 50 μg alone, WST-1, 72 hrs, FIG. 9c): No effect
